From patent US8461328B2, “Tricyclic heterocyclic compounds, compositions and methods of use thereof” (Genentech, Inc., priority 2010, dated 2013)

Legend:
Type in all cases: biochemical
JAK1 = biological target: T1, JAK1 (Homo sapiens, UniProt P23458); assay: JAK1 inhibition (Table 4); details: read-out: JAK1 Ki
T1 construct: made in house; host or cells: SF9 insect cells (baculovirus)

TYK2 = biological target: T2, TYK2 (Homo sapiens, UniProt P29597); assay: TYK2 inhibition (Table 4)
T2 construct: made in house; host or cells: SF9 insect cells (baculovirus)
T2 sequence (P29597 873-1187): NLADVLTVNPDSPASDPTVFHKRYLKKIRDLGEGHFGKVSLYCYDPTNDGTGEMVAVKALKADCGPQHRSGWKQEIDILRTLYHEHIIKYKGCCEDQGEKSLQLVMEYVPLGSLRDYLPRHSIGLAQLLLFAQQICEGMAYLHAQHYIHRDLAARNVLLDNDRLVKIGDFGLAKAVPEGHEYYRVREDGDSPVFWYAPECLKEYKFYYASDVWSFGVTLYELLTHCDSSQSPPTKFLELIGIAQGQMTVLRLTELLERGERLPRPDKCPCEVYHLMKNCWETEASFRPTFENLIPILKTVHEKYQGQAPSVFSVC

JAK2 = biological target: T3, JAK2 (Homo sapiens, UniProt O60674); assay: JAK2 inhibition (Table 4); details: read-out: JAK2 Ki
T3 construct: made in house; host or cells: SF9 insect cells (baculovirus)
T3 sequence (O60674 812-1132): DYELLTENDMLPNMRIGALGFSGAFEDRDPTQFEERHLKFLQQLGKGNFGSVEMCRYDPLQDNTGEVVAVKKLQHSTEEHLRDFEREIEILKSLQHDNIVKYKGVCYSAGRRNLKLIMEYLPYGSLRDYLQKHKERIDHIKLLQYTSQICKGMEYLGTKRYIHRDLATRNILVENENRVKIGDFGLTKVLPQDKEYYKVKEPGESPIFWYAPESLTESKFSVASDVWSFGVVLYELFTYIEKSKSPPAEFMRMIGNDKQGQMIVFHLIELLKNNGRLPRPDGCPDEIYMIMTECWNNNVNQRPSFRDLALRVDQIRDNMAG

JAK3 = biological target: T4, JAK3 (Homo sapiens, UniProt P52333); assay: JAK3 inhibition (Table 4); details: read-out: JAK3 Ki
T4 construct: made in house; host or cells: SF9 insect cells (baculovirus)
T4 sequence (P52333 783-1124): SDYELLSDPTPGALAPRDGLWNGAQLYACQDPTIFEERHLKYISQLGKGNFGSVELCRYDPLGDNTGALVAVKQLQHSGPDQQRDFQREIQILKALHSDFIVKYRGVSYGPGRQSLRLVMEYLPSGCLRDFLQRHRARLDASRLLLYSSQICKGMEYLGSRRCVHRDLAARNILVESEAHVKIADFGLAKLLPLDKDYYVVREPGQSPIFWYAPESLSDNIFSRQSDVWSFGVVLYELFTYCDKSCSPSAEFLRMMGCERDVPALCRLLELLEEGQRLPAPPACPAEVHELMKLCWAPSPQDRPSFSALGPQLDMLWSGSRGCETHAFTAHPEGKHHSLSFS

T1 sequence (P23458 852-1154): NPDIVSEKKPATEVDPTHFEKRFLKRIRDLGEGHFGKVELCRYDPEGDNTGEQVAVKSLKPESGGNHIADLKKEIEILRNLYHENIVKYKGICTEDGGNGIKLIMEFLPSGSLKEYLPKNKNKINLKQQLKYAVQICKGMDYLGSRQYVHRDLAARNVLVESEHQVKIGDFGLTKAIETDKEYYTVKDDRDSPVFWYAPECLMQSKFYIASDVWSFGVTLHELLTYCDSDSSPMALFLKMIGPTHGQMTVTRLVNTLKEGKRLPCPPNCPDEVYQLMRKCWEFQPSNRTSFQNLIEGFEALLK

Row | SMILES | Ki (JAK1) [nM] | Ki (TYK2) [nM] | Ki (JAK2) [nM] | Ki (JAK3) [nM]
1 | O=C(N[C@H]1CC[C@H](n2cnc3cnc4[nH]ccc4c32)CC1)c1ccncc1 [Example 570, trans N-[4-(6H-1,3,5,6-Tetraaza-as-indacen-1-yl)-cyclohexyl]-isonicotinamide] | 11.2 | 77.7 | 10 | 116
2 | Cc1nc2cnc3[nH]ccc3c2n1C1CCC(NC(=O)OC(C)(C)C)C1 (racemic) [Example 352, [(1S,3S)-3-(2-Methyl-6H-1,3,5,6-tetraaza-as-indacen-1-yl]-cyclopentyl]-carbamic acid tert-butyl ester] | 1.03 | 44.6 | 5.62 | 23.7
3 | CCCC1(n2c(C)nc3cnc4[nH]ccc4c32)CC1 [Example 423, 2-Methyl-1-(1-propyl-cyclopropyl)-1,6-dihydro-1,3,5,6-tetraaza-as-indacene] | 9.88 | 112 | 14.1 | 9.67
4 | COC1CNCCC1n1nnc2cnc3[nH]ccc3c21 (racemic) [Example 536, 1-(3-Methoxy-piperidin-4-yl)-1,6-dihydro-1,2,3,5,6-pentaaza-as-indacene] | 32.5 | 235 | 61.2 | 1020
5 | C[C@@H](O)c1nc2cnc3[nH]ccc3c2n1[C@@H]1CCN(S(C)(=O)=O)C1 [Example 686, (R)-1-[1-((R)-1-Methanesulfonyl-pyrrolidin-3-yl)-1,6-dihydro-1,2,3,5,6-tetraaza-as-indacen-2-yl]-ethanol] | 47.4 | 4.17 | 27 | 15.3
6 | C[C@@H](O)c1nc2cnc3[nH]ccc3c2n1[C@H]1CC[C@@H](NCC(F)F)C1 [Example 1005, (R)-1-{1-[(1S,3R)-3-(2,2-Difluoro-ethylamino)-cyclopentyl]-1,6-dihydro-1,3,5,6-tetraaza-as-indacen-2-yl}-ethanol] | 2.36 | 18.1 | 86.1 | 26.3
7 | O=C(Cc1nc2cnc3[nH]ccc3c2n1C1CCCOC1)N1CCC(F)(F)CC1 (racemic) [Example 978, 1-(4,4-Difluoro-piperidin-1-yl)-2-[1-(tetrahydro-pyran-3-yl)-1,6-dihydro-1,3,5,6-tetraaza-as-indacen-2-yl]-ethanone] | 17.4 | 157 | 305 | 124
8 | Cn1nccc1C(=O)N1CCC(n2cnc3cnc4[nH]ccc4c32)CC1 [Example 84, (2-Methyl-2H-pyrazol-3-yl)-[4-(6H-1,3,5,6-tetraaza-as-indacen-1-yl)-piperidin-1-yl]methanone] | 11.6 | 160 | 36.1 | 747
9 | CC1CC(n2cnc3cnc4[nH]ccc4c32)CCN1 (racemic) [Example 230, 1-(2-Methyl-piperidin-4-yl)-1,6-dihydro-1,3,5,6-tetraaza-as-indacene] | 47.8 | 435 | 123 | 424
10 | Cc1nc2cnc3[nH]ccc3c2n1C1CCN(Cc2ccccc2)CC1(F)F (racemic) [Example 428, 1-(1-Benzyl-3,3-difluoro-piperidin-4-yl)-2-methyl-1,6-dihydro-1,3,5,6-tetraaza-as-indacene] | 0.64 | 12.7 | 0.78 | 1.62
11 | CS(=O)(=O)NCc1nc2cnc3[nH]ccc3c2n1C1CC2CCC1O2 (single isomer, unassigned) [Example 849, endo-N-[1-(7-Oxa-bicyclo[2.2.1]hept-2-yl)-1,6-dihydro-1,3,5,6-tetraaza-as-indacen-2-ylmethyl]-methanesulfonamide] | 50.8 | 459 | 515 | 592

Next, values leading:

Row | Ki (JAK1) [nM] | Ki (TYK2) [nM] | Ki (JAK2) [nM] | Ki (JAK3) [nM] | SMILES
12 | 114 | 799 | 564 | 352 | O=C(Cc1nc2cnc3[nH]ccc3c2n1C1CCCOC1)N1CC(F)(F)C1 (racemic) [Example 971, 1-(3,3-Difluoro-azetidin-1-yl)-2-[1-(tetrahydro-pyran-3-yl)-1,6-dihydro-1,3,5,6-tetraaza-as-indacen-2-yl]-ethanone]
13 | 8.58 | 207 | 43 | 63.7 | CC(F)(F)CCc1nc2cnc3[nH]ccc3c2n1C1CCN(CCC#N)CC1 [Example 817, 3-{4-[2-(3,3-Difluoro-butyl)-6H-1,3,5,6-tetraaza-as-indacen-1-yl]-piperidin-1-yl}-propionitrile]
14 | 7.53 | 48.6 | 17.8 | 71.6 | Cc1nc2cnc3[nH]ccc3c2n1C1CCN(S(C)(=O)=O)CC1 [Example 86, 1-(1-Methanesulfonyl-piperidin-4-yl)-2-methyl-1,6-dihydro-1,3,5,6-tetraaza-as-indacene]
15 | 15.4 | 350 | 54.1 | 70.3 | CC(=O)N(C)CCc1nc2cnc3[nH]ccc3c2n1C1CCN(CCC#N)CC1 [Example 387, N-(2-{1-[1-(2-Cyano-ethyl)-piperidin-4-yl]-1,6-dihydro-1,3,5,6-tetraaza-as-indacen-2-yl}-ethyl)-N-methyl-acetamide]
16 | 2.23 | 63 | 10.2 | 13.9 | Cc1nc2cnc3[nH]ccc3c2n1[C@@H]1CC[C@@H](NC(=O)CC(F)(F)F)C1 [Example 624, 3,3,3-Trifluoro-N-[(1R,3R)-3-(2-methyl-6H-1,2,3,5,6-tetraaza-as-indacen-1-yl)-cyclopentyl]-propionamide]
17 | 2.13 | 209 | 16.3 | 84.6 | CC(O)c1nc2cnc3[nH]ccc3c2n1C1CCN(Cc2cccc(C#N)c2)CC1 (racemic) [Example 156, Racemic 3-{4-[2-(1-Hydroxy-ethyl)-6H-1,2,3,5,6-tetraaza-as-indacen-1-yl]-piperidin-1-ylmethyl}-benzonitrile]
18 | 4.59 | 135 | 22 | 28.8 | COCC(=O)NCCc1nc2cnc3[nH]ccc3c2n1C1CCN(CCC#N)CC1 [Example 372, N-(2-{1-[1-(2-Cyano-ethyl)-piperidin-4-yl]-1,6-dihydro-1,3,5,6-tetraaza-as-indacen-2-yl}-ethyl)-2-methoxy-acetamide]
19 | 4.9 | 9.49 | 49.2 | 60.7 | C[C@@H](O)c1nc2cnc3[nH]ccc3c2n1[C@H]1CCN(CCC#N)C1 [Example 893, 3-{(S)-3-[2-((R)-1-Hydroxy-ethyl)-6H-1,3,5,6-tetraaza-as-indacen-1-yl]-pyrrolidin-1-yl}-propionitrile]
20 | 373 | 2160 | 1300 | 1450 | FC(F)(F)c1nc2cnc3[nH]ccc3c2n1[C@@H]1CCCNC1 [Example 301, 1-(R)-Piperidin-3-yl-2-trifluoromethyl-1,6-dihydro-1,3,5,6-tetraaza-as-indacene]
21 | 0.84 | 6.95 | 2.16 | 7.63 | Cc1nc2cnc3[nH]ccc3c2n1C1CCN(CCF)CC1 [Example 513, 1-[1-(2-Fluoro-ethyl)-piperidin-4-yl]-2-methyl-1,6-dihydro-1,3,5,6-tetraaza-as-indacene]
